From patent publication US9861616B2, “Methods for treating respiratory diseases and formulations therefor” (priority 2013, dated 2018)

Tests used:
P. aeruginosa PA12 = assay: MIC by microdilution with PaβN or EGTA, clinical isolate overexpressing efflux pumps; assay type: cell-based
Procedure: (§1) MICs of 36 clinical and laboratory strains of PA with known efflux phenotype are measured by microdilution in cation-adjusted Muller-Hinton broth (CA-MHB) or in RPMI medium (commonly used in eukaryotic cell culture). Phe-Arg-β-naphthylamide (PaβN, 50 mg/L) and EGTA 5 mM are used to inhibit efflux pumps and alter OM integrity, respectively. P. aeruginosa strain ATCC PAO1 is used as reference. PA12 is a clinical strain overexpressing the 4 main efflux systems (MexAB, MexCD, MexEF, MexXY), PA403 is a laboratory strain deleted in the genes coding for the 4 efflux systems. A series of reference strains or of clinical isolates for which the expression of genes coding for efflux pumps is known is also used for MICs determinations. MICs are measured by microdilution in MH broth or in RPMI medium (used for eukaryotic cells culture) supplemented with 10% of fetal calf serum, or in MH broth supplemented by increasing amounts of serum. EGTA (5 mM) was used as a chelating agent (disrupting outer membrane integrity) and PaβN (50 mg/L) as an unspecific efflux inhibitor.

P. aeruginosa (PA) = assay: MIC by microdilution, 36 clinical and laboratory strains with known efflux phenotype; assay type: cell-based
Procedure: as §1

TNFα release = assay: LPS-induced TNFα release in PMA-differentiated U937 cells (ELISA); assay type: cell-based, human
Procedure: Effects of macrolides on lipopolysaccharide (LPS)-induced TNFα release in PMA-differentiated U937 cells. […] LPS-induced TNFα release was evaluated by ELISA. Values represent means of three experiments±SEM. ^##p<0.01 (vs. non-treatment control), *p<0.05, **p<0.01 (vs. treatment with LPS only).
The human monocytic cell line U937 was obtained from the American Type Culture Collection (ATCC, Rockville, Md.). PBMCs from COPD patients were obtained from Brompton hospital and separated by AccuSPIN (Sigma-Aldrich). Cells were cultured in complete growth medium (RPMI 1640) (Sigma-Aldrich) supplemented with 10% fetal bovine serum (FBS) and 1% L-glutamine at 37° C. in a humidified atmosphere with 5% CO2. U937 cells were differentiated into adherent macrophage-like morphology by exposure to PMA (50 ng/mL) for 48 hrs in complete growth medium. Cell viability was assessed microscopically by trypan blue staining. Cell toxicity was determined by MTT assay as needed. This study was approved by the ethics committee of the Royal Brompton Hospitals, and all subjects gave written informed consent.
TNFα and IL-8 concentrations in the supernatant of cell cultures were determined by sandwich ELISA according to the manufacturer's instructions (R&D Systems Europe, Abingdon, UK).
The results were expressed as the mean±SEM. Comparisons of data in two groups were performed using the Student's t test or the Wilcoxon signed rank test. Multiple comparisons were made by one-way ANOVA with post hoc test (Dunnett's) as appropriate. The difference was considered significant at p<0.05. IC50 values (50% inhibitory concentration) for macrolides for production of cytokines or MMP9 were calculated using Prism 4.0 (GraphPad Software Inc., San Diego, Calif.).

[1] = tested on: MRSA strains from CF patients; assay: Microdilution MICs against 40 MRSA strains from CF patients; assay type: cell-based, S. aureus
Procedure: Two strains each of mucoid P. aeruginosa (both pyocyanin positive) and […] MRSA (only one strain with gold colonies) isolated from patients at a CF clinic were tested. Additionally, 2 B. cepacia strains were acquired, from Hershey Medical Center. All strains were identified by standard methods. Only one strain per patient was tested. MLVA was done on all strains to examine clonality, and confirmed that examination is not taking place on only one or a few clones. Strains will be stored in skim milk at −70° C. until use.
Original MICs of each strain to CEM-101 and other comparators were tested by CLSI microdilution methodology. Trays were obtained from Trek, Inc., Cleveland, Ohio. Time-kill macrobroth MIC dilution by CLSI was performed for all synergy testing.

[2] = 40 MRSA strains from CF patients

CC[C@H]1OC(=O)[C@@](C)(F)C(=O)[C@H](C)[C@@H](O[C@@H]2O[C@H](C)C[C@H](N(C)C)[C@H]2O)[C@](C)(OC)C[C@@H](C)C(=O)[C@H](C)[C@H]2N(CCCCn3cc(-c4cccc(N)c4)nn3)C(=O)O[C@]12C [CEM-101, solithromycin]
4 µg/mL: MIC (P. aeruginosa PA12; PA12, CA-MHB, PaβN 50 mg/L) | MIC (P. aeruginosa PA12; PA12, RPMI, PaβN 50 mg/L) | MIC (P. aeruginosa PA12; PA12, RPMI, control conditions (CT)) | MIC (P. aeruginosa (PA); strain 4, efflux XY+, RPMI) | MIC (P. aeruginosa (PA); strain 12, efflux AB + CD + EF + XY+, RPMI) | MIC (P. aeruginosa (PA); strain 16, efflux AB + XY+, RPMI) | MIC (P. aeruginosa (PA); strain 21, efflux AB+, RPMI) | MIC (P. aeruginosa (PA); strain 22, efflux XY+, RPMI) | MIC (P. aeruginosa (PA); strain 40, efflux EF+, RPMI) | MIC (P. aeruginosa (PA); strain 41, efflux CD+, RPMI) | MIC (P. aeruginosa (PA); strain 48, efflux CD + EF + XY+, RPMI) | MIC (P. aeruginosa (PA); strain 49, efflux CD + EF + XY+, RPMI) | MIC (P. aeruginosa (PA); strain 63, efflux AB + EF + XY+, RPMI) | MIC (P. aeruginosa (PA); strain 68, efflux AB + XY+, RPMI) | MIC (P. aeruginosa (PA); strain 133, efflux EF + XY+, RPMI) | MIC (P. aeruginosa (PA); strain 168B, efflux CD + XY+, RPMI) | MIC (P. aeruginosa (PA); strain 207, efflux AB + EF + XY+, RPMI) | MIC (P. aeruginosa (PA); strain 266B, efflux AB + CD+, RPMI) | MIC (P. aeruginosa (PA); strain 394, efflux XY−, RPMI) | MIC (P. aeruginosa (PA); strain 398, efflux CD−, MHB) | MIC (P. aeruginosa (PA); strain 400, efflux XY−, MHB) | MIC (P. aeruginosa (PA); strain 403, efflux AB − CD − EF − XY−, MHB) | MIC (P. aeruginosa (PA); strain 405, efflux AB − CD − EF − XY−, MHB) | MIC (P. aeruginosa (PA); strain PAO1, REFERENCE, RPMI)
128 µg/mL: MIC (P. aeruginosa (PA); strain 1, efflux AB+, MHB) | MIC (P. aeruginosa (PA); strain 4, efflux XY+, MHB) | MIC (P. aeruginosa (PA); strain 12, efflux AB + CD + EF + XY+, MHB) | MIC (P. aeruginosa (PA); strain 21, efflux AB+, MHB) | MIC (P. aeruginosa (PA); strain 48, efflux CD + EF + XY+, MHB) | MIC (P. aeruginosa (PA); strain 49, efflux CD + EF + XY+, MHB) | MIC (P. aeruginosa (PA); strain 168B, efflux CD + XY+, MHB) | MIC (P. aeruginosa (PA); strain 333A, efflux AB + EF+, MHB) | MIC (P. aeruginosa (PA); strain 335, efflux AB + EF+, MHB) | MIC (P. aeruginosa (PA); strain 434, efflux AB + CD + XY+, MHB) | MIC (P. aeruginosa (PA); strain PAO1, REFERENCE, MHB)
smaller difference: difference in MIC in the presence of efflux pump inhibitors (P. aeruginosa (PA); compared with the other macrolides, Table 2 strains)
41.6 ± 1.9 µM: IC50 (TNFα release; PMA-differentiated U937 cells, read-out: IC50, LPS-induced TNFα release)
0.06 to 0.25 µg/mL: MICs against the strains it was active against ([1]; 21 of the 40 MRSA strains)
significantly inhibited: effect on TNFα production (TNFα release; at 100 μM)
1 µg/mL: MIC (P. aeruginosa PA12; PA12, RPMI, EGTA 5 mM) | MIC (P. aeruginosa (PA); strain 3, efflux EF+, RPMI) | MIC (P. aeruginosa (PA); strain 392, efflux CD−, RPMI) | MIC (P. aeruginosa (PA); strain 397, efflux AB−, RPMI) | MIC (P. aeruginosa (PA); strain 399, efflux AB − EF−, RPMI) | MIC (P. aeruginosa (PA); strain 400, efflux XY−, RPMI) | MIC (P. aeruginosa (PA); strain 403, efflux AB − CD − EF − XY−, RPMI) | MIC (P. aeruginosa (PA); strain 405, efflux AB − CD − EF − XY−, RPMI)
32 µg/mL: MIC (P. aeruginosa PA12; PA12, CA-MHB, control conditions (CT)) | MIC (P. aeruginosa (PA); strain 16, efflux AB + XY+, MHB) | MIC (P. aeruginosa (PA); strain 40, efflux EF+, MHB) | MIC (P. aeruginosa (PA); strain 207, efflux AB + EF + XY+, MHB) | MIC (P. aeruginosa (PA); strain 391, efflux EF−, MHB) | MIC (P. aeruginosa (PA); strain 394, efflux XY−, MHB)
2 µg/mL: MIC (P. aeruginosa (PA); strain 1, efflux AB+, RPMI) | MIC (P. aeruginosa (PA); strain 11, efflux AB + CD+, RPMI) | MIC (P. aeruginosa (PA); strain 156, efflux EF + XY+, RPMI) | MIC (P. aeruginosa (PA); strain 333A, efflux AB + EF+, RPMI) | MIC (P. aeruginosa (PA); strain 335, efflux AB + EF+, RPMI) | MIC (P. aeruginosa (PA); strain 391, efflux EF−, RPMI) | MIC (P. aeruginosa (PA); strain 395, efflux HI−, RPMI) | MIC (P. aeruginosa (PA); strain 396, ompH−, RPMI) | MIC (P. aeruginosa (PA); strain 397, efflux AB−, MHB) | MIC (P. aeruginosa (PA); strain 398, efflux CD−, RPMI) | MIC (P. aeruginosa (PA); strain 401, ompH−, MHB) | MIC (P. aeruginosa (PA); strain 401, ompH−, RPMI)
16 µg/mL: MIC (P. aeruginosa PA12; PA12, CA-MHB, EGTA 5 mM) | MIC (P. aeruginosa (PA); strain 11, efflux AB + CD+, MHB) | MIC (P. aeruginosa (PA); strain 392, efflux CD−, MHB)
0.25 µg/mL: MIC50 [1, 2]
52.5%: share of strains against which active ([1]; 21 of the 40 MRSA strains, MICs 0.06-0.25)
64 µg/mL: MIC (P. aeruginosa (PA); strain 22, efflux XY+, MHB) | MIC (P. aeruginosa (PA); strain 63, efflux AB + EF + XY+, MHB) | MIC (P. aeruginosa (PA); strain 68, efflux AB + XY+, MHB) | MIC (P. aeruginosa (PA); strain 133, efflux EF + XY+, MHB) | MIC (P. aeruginosa (PA); strain 156, efflux EF + XY+, MHB) | MIC (P. aeruginosa (PA); strain 395, efflux HI−, MHB)
8 µg/mL: MIC (P. aeruginosa (PA); strain 2, efflux CD+, RPMI) | MIC (P. aeruginosa (PA); strain 3, efflux EF+, MHB) | MIC (P. aeruginosa (PA); strain 396, ompH−, MHB) | MIC (P. aeruginosa (PA); strain 399, efflux AB − EF−, MHB) | MIC (P. aeruginosa (PA); strain 434, efflux AB + CD + XY+, RPMI)
≥ 16 µg/mL: MICs against the remaining organisms ([1]; remaining 19 of 40 MRSA strains)
256 µg/mL: MIC (P. aeruginosa (PA); strain 2, efflux CD+, MHB) | MIC (P. aeruginosa (PA); strain 41, efflux CD+, MHB) | MIC (P. aeruginosa (PA); strain 266B, efflux AB + CD+, MHB)
≧16 μg/mL: MIC90 [1, 2]
